{"source": "paper PMC9127750", "about": "“Structure-based design of CDC42 effector interaction inhibitors for the treatment of cancer” (Cell reports, 2022)", "key": {"[1]": {"molecular_target": "T1, CDC42 and PAK1-PBD interaction (Homo sapiens, UniProt P60953)", "T1 construct": "endogenous in cells; host or cells: WM3248 (or WM983B) melanoma cells; PAK1 PBD beads from Cell Biolabs kit", "T1 sequence (P60953 1-188 limits assumed)": "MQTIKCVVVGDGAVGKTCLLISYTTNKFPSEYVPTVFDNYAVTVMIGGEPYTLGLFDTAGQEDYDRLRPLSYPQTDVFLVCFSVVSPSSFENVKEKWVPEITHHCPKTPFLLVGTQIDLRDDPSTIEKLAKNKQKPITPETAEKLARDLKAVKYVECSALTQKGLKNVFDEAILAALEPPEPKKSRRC", "experiment": "CDC42 interaction assay (PAK1-PBD pull-down)", "assay_type": "cell-based", "details": "WM3248 cells; ARN22089 at 10 and 50 μM, lysates incubated with GTP; ARN12405 indicated doses (Fig S2B)", "description": "(§1) 24 hours later the lysates from treated and untreated cells were unloaded of guanosine nucleotides and either loaded with GDP or GTPγS. […] Precipitated lysates were then immunoblotted with indicated antibodies."}, "[2]": {"molecular_target": "T2, RHOJ and PAK1-PBD interaction (Homo sapiens, UniProt Q9H4E5)", "T2 construct": "endogenous in cells; host or cells: WM3248 (or WM983B) melanoma cells; PAK1 PBD beads from Cell Biolabs kit", "T2 sequence (Q9H4E5 1-211 limits assumed)": "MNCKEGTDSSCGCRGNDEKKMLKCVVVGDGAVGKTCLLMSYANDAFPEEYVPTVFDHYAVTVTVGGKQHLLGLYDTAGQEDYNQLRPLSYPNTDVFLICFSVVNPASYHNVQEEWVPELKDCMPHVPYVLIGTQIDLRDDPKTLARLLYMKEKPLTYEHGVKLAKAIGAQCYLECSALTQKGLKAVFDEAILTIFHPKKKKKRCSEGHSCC", "experiment": "CDC42 interaction assay (PAK1-PBD pull-down)", "assay_type": "cell-based", "details": "WM3248 cells; ARN22089 at 10 and 50 μM, lysates incubated with GTP; ARN12405 indicated doses (Fig S2B)", "description": "as §1"}, "[3]": {"test_system": "WM3248, SKMel3, A375, SW480, and SKM28", "experiment": "cells", "details": "Homo sapiens, read-out: IC50 across cancer cell lines", "description": "(§2) Cancer cell line viability assay was performed using a CellTiterGlo assay. Cells were cultured in their appropriate media and seeded in white multi-well plates. For the assays, cells were incubated with compound at 37°C overnight, and a CellTiterGlo assay was performed to quantify viable cells."}, "WM3248": {"test_system": "WM3248", "experiment": "cells", "details": "Homo sapiens, WM3248, read-out: IC50 WM3248", "description": "as §2"}, "SKMel28 melanoma cells": {"test_system": "SKMel28 melanoma cells", "experiment": "Cancer cell line viability assay (CellTiterGlo)", "assay_type": "cell-based, Human", "details": "for decrease of activity compared with the hit: SKM28 cells, versus ARN12405; for dose response in SKM28 cell lines: Figure S2F"}, "A375 VMT": {"test_system": "A375 VMT", "experiment": "Vascularized microtumor (VMT) assay", "assay_type": "cell-based, Human", "details": "2 μM", "experimental": "(§3) Briefly, human endothelial colony-forming cell-derived endothelial cells (ECFC-EC) are isolated from cord blood via selection for the CD31 + cell population and cultured in EGM2 medium (Lonza). […] Cancer cells and LF are cultured in DMEM (Corning) containing 10% FBS (Gemini Bio). […] To load the microfluidic device, ECFC-EC and LF (both 8 × 10^6 cells/mL) and cancer cells (2.5 × 10^6 cells/mL) were resuspended in fibrinogen solution (10 mg/mL basal medium). The cell slurry was then mixed with 1 mL thrombin (3 U/mL) to catalyze gel solidification and quickly loaded into the tissue chambers of each VMT unit. […] All cells and VMTs are cultured in a 37°C, 20% O2, 5% O2 environment.\n(§4) Fluorescence images were acquired with an Olympus IX70 inverted microscope using SPOT software (SPOT Imaging, Sterling Heights, Michigan). […] Each chamber was normalized to time 0 baseline."}, "[4]": {"test_system": "VMOs (vessels, no tumor cells)", "experiment": "Vascularized micro-organ (VMO) assay", "assay_type": "cell-based, Human", "details": "no tumor cells (Figure 4D)", "experimental": "as §3, §4"}}, "note": "pIC50: −log10 of the molar value. Entries after “also recorded” stand apart in the source; their conditions may differ."}
{"compound": "Clc1ccc(Nc2cc(-c3ccncc3)nc(C3CCCNC3)n2)cc1", "note": "(centres unmarked) [ARN12405]", "values": [{"measurement": "inhibition of CDC42 - PAK1-PBD interaction", "setting": "[1]", "value": "inhibits RHOJ/CDC42-PAK interactions; also recorded: blocked the RHOJ/CDC42 PAK interaction"}, {"measurement": "inhibition of RHOJ - PAK1-PBD interaction", "setting": "[2]", "value": "inhibits RHOJ/CDC42-PAK interactions; also recorded: blocked the RHOJ/CDC42 PAK interaction"}]}
{"compound": "Clc1ccc(Nc2cc(-c3ccccc3)nc(C3CCCNC3)n2)cc1", "note": "(centres unmarked) [ARN21698]", "values": [{"measurement": "pIC50", "setting": "[3]", "value": "4.96 to 5.20"}, {"measurement": "pIC50", "setting": "WM3248", "value": 5.07}]}
{"compound": "c1ccc(Nc2cc(-c3ccncc3)nc(C3CCCNC3)n2)cc1", "note": "(centres unmarked) [ARN21699]", "values": [{"measurement": "decrease of activity compared with the hit", "setting": "SKMel28 melanoma cells", "value": 2, "unit": "fold"}]}
{"compound": "Clc1cccc(Nc2cc(-c3ccncc3)nc(C3CCCNC3)n2)c1", "note": "(centres unmarked) [ARN21700]", "values": [{"measurement": "decrease of activity compared with the hit", "setting": "SKMel28 melanoma cells", "value": 2, "unit": "fold"}, {"measurement": "pIC50", "setting": "WM3248", "value": 4.51}]}
{"compound": "COc1ccc(Nc2cc(-c3ccccc3)nc(C3CCOCC3)n2)cc1", "note": "[ARN22162, N-(4-methoxyphenyl)-6-phenyl-2-tetrahydropyran-4-yl-pyrimidin-4-amine]", "values": [{"measurement": "dose response in SKM28 cell lines", "setting": "SKMel28 melanoma cells", "value": "no dose response"}]}
{"compound": "CN(C)c1ccc(Nc2cc(-c3ccccc3)nc(C3CCOCC3)n2)cc1", "note": "[ARN22163, N4,N4-dimethyl-N1-(6-phenyl-2-tetrahydropyran-4-yl-pyrimidin-4-yl)benzene-1,4-diamine]", "values": [{"measurement": "dose response in SKM28 cell lines", "setting": "SKMel28 melanoma cells", "value": "no dose response"}]}
{"compound": "CCn1c(=O)c(-c2ccc(-c3cncs3)cc2Cl)cc2cnc(Nc3ccc(N4CCN(C)CC4)cc3)nc21", "note": "[FRAX597]", "values": [{"measurement": "growth of A375 cells and blood vessels in VMT", "setting": "A375 VMT", "value": "did not significantly inhibit"}]}
{"compound": "Cc1ccc(F)c(NC(=O)Nc2ccc(-c3cccc4[nH]nc(N)c34)cc2)c1", "note": "[linifanib]", "values": [{"measurement": "vessel growth / angiogenesis in VMOs", "setting": "[4]", "value": "did inhibit angiogenesis"}]}
